Data set [1] can be described thus: LogP (hydrophilicity). The data set is classed as physicochemical.
Data set [2] is described as follows: Metabolism studies of ^11C-MCG in mice (blood and kidney, HPLC). The settings on record: mice in vivo, n=2. The method, then:
At different times after injection of ^11C-MCG into mice, blood and kidneys were collected to determine the rate of metabolism of the radiotracer. Heparinized blood (0.2-0.3 mL) was diluted to 0.9 mL with cold 0.9% saline and acidified to 0.5 N by the rapid addition of 0.1 mL of 5 N perchloric acid. Following 5 minutes on ice, the precipitate was removed by centrifugation to yield an acid-soluble supernatant that was analyzed by HPLC. Similarly, an acid extract of mouse kidney was obtained from an initial homogenate of two kidneys in 0.8 mL of cold water.
The acid extracts were loaded onto a 4.6×250 mm Prodigy ODS-3 column (Phenomenex) eluted with 10% acetonitrile in 50 mM sodium phosphate buffer pH 2.5 at a flow rate of 2 mL/min. Radioactivity was measured by a dual BGO flow detector and the chromatograph analyzed by Laura software (Bioscan, Washington, D.C.). ^11C-MCG eluted after 4.0 minutes with a minor, earlier eluting product at 2.5 minutes.

Data set [3] deals with GCP II. In words: Baboon PET study of renal cortical uptake with tracer kinetic modeling. The class given is in vivo, baboon (Papio anubis). As to the method:
(§1) A dynamic PET study of the renal cortical uptake and clearance of ^11C-MCG was performed in an adult male baboon (Papio anubis; body weight, approximately 30 kg). Before each study, two intraveneous catheters and a single arterial catheter were placed for infusion of anesthesia, injection of radiotracer and sampling of arterial blood, respectively. The animal was initially anestitized intramuscurally with 8-10 mg/kg alfadolone and alfaxalone acetate (Saffan; Pitman-Moore, Middlesex, UK) and was intubated. Anesthesia was maintained throughout the study by a continuous intravenous infusion drip of 6-9 mg/kg/h of Saffan. The animal was secured to the PET bed using an individually fitted thermoplastic mask. Pulse, blood pressure, and oxygen saturation were monitored continuously during the studies. Blood oxygen saturation was always maintained above 85%. After the animal was positioned in the PET scanner, transmission scanning was performed with a 370 MBq (10 mCi) ^68Ga source to allow for attenuation correction. PET scanning was started immediately after intravenous injection of 370 MBq (10 mCi) of high-specific-acitivtiy ^11C-MCG (corresponding, at a maximum, to 0.02 μg/kg). Thirty-five simultaneous, contiguous (18 directed planes, 17 cross planes, z-axis 14.45 cm), sequential quantitative tomographic slices fo […] were obtained with a GE Advance PET tomograph (General Electric Medical Systems, Milwaukee, Wis.) in the high-resolution mode (4.25-5.00 mm ful width at half maximum within the slice) over a 90 minute period. The animal was positioned so that the renal cortex was in the filed of view. Approximately 30 arterial blood samples (for radioassay and protein binding) were obtained over 90 minutes. […]
A one-tissue, three parameter (K1=influx, k2 efflux, DV=distribution volume) model was applied to the TACs and to the metabolite-corrected renal uptake curves to describe tracer kinetics with DV (=K1/k2 in ml/ml) used as anindex of receptor density. The effect of blocking with PMPA was evaluated by changes in the Dva nd calculated as 100×(DVbaseline−DVblocker)/DVbaseline. […]

Data set [4] can be described thus: Metabolism of ^11C-MCG in baboon arterial plasma. The data set is classed as in vivo, baboon (Papio anubis). The method, then: as §1, with “PET scanning was started immediately after intravenous injection of 370 MBq (10 mCi) of high-specific-acitivtiy ^11C-MCG (corresponding, at a maximum, to 0.02 μg/kg).” left out, “period.” for “period. The animal was positioned so that the renal cortex was in the filed of view. Approximately 30 arterial blood samples (for radioassay and protein binding) were obtained over 90 minutes.”

For data set [5] the following is noted: in vivo.
Protocol: Male CD-1 mice (Charles River, Wilmington, Mass.) weighing between 20 and 25 g were used and received an injection of 3.7 MBq (100 μCi) of ^11C-MCG through the tail vein. That amounted to, at a maximum, 0.27 μg/kg. For kinetic studies, mice were killed by cervical dislocation at 5, 15, 30, 60, and 120 min after injection fo the radiotracer in 200 μL of saline vehicle. The brains were removed and placed on ice, and the cerebellum, olfactory bulb, hypothalamus, hippocampus, striatum, parietal cortex, brainstem, and thalamus were harvested. Kidneys, blood, fat, muscle, small intestine, and prostate were also harvested. The tissue samples were weighted, and their radioactivity content was determined in an automated γ counter (1282 Compugamma CS: Pharmacia/LKB Nuclear, Gaithersburg Md.). Aliquots of the injected tracer were counted along with the samples and served as standards for the calculation of percentage injected dose per gram of tissue (% ID/g). To assess binding specificity, groups of three mice each were pretreated with the high affinity GCP II inhibitor PMPA at does of 1, 10 and 100 mg/kg in 200 μL of saline vehicle 5 minutes prior to ^11C-MCG injection. In an additional binding specificity study, animals were pretreated similarly with unlabeled MCG standard at doses of 5, 50, 100, 500, and 1000 μg/kg before ^11C-MCG injection
Data set [6] has as its target T1, GCP II (Mus musculus, UniProt O35409).
T1 construct: from tissue; host or cells: kidney of live male CD-1 mice
The data set is described as follows: Binding specificity: blocking of ^11C-MCG kidney uptake by pretreatment with blocker. The class given is in vivo, mice. Particulars: for reduction in ^11C-MCG uptake: mouse kidney, pretreatment 5 minutes prior with unlabeled MCG (up to 1 mg/kg) or PMPA (1 mg/kg), sacrifice 30 minutes. As to the method:
ANOVA, which was used in rodent radiotracer uptake studies, was performed with StatView SE Graphic software, version 1.03 (SAS Institute, Cary, N.C.). For the Students t test, p<0.01 was considered to indicate statistical significance.

T1 sequence (O35409 whole entry): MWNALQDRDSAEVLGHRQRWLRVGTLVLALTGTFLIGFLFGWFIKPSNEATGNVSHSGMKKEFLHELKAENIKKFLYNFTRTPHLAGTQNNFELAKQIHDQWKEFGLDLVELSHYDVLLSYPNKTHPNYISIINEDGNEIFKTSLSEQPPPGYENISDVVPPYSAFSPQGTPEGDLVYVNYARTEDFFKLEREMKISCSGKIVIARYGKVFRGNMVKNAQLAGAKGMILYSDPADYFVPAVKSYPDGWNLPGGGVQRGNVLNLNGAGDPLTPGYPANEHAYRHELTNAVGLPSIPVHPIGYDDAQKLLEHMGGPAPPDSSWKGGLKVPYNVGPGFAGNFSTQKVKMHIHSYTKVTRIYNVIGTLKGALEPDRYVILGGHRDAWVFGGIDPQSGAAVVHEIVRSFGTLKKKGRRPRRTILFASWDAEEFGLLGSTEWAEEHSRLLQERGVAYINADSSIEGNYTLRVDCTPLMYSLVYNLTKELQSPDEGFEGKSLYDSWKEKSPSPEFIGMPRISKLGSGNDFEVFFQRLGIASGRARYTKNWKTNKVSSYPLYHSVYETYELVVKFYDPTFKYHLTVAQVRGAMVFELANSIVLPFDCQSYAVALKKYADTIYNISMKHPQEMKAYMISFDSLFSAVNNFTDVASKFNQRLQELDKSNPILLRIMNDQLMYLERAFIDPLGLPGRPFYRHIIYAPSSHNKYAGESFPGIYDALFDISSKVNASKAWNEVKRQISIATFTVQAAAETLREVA

By logP is commonly meant a log measure of how a compound divides between an organic and an aqueous phase. Low values mean lower lipophilicity, high ones higher lipophilicity. Turning to `[11CH3]SC[C@H](NC(=O)N[C@@H](CCC(=O)O)C(=O)O)C(=O)O` [^11C-MCG, 2-[3-(1-Carboxy-2-^11C-methylsulfanyl-ethyl)-ureido]-pentanedioic acid], the logP in data set [1] was -0.235. Also, in data set [2] (30 minute time point), the metabolism in kidney was determined as 2.0% and the metabolism in plasma was found to be 3.5%. For the same compound, in data set [2] (60 minutes), the metabolism in plasma entry was “at most 9.2%”. This compound also gave a metabolism in kidney in data set [2] (at most over 5-60 minutes) of no more than 10.4%. Moreover, in data set [3] (baboon renal cortex, after pretreatment with 3 mg/kg PMPA), the “DV (distribution volume)” value came out at 0.878 mL/mL. In data set [3] (male, baboon (Papio anubis), in vivo), the “DV (distribution volume)” value was 1.38 mL/mL. Moreover, the peak metabolism in data set [4] (baseline, 90 minutes after injection) is reported as 9.0%. The compound also came in with a peak metabolism in data set [4] (blocker (2 mg/kg PMPA) 10 minutes prior to tracer, 90 minutes post injection) of 4.0%. Further, in data set [5] (male, CD-1, mouse, 30 min), the Kidney/blood ratio is given as 30, the Prostate uptake was 1.55±1.01 % ID/G, the kidney/muscle ratio amounted to 73 and the uptake in brainstem was 0.12±0.03 % ID/g. In addition, in data set [5] (male, CD-1, mouse, 30 min), the uptake in cerebellum is recorded as less than 0.1 % ID/g, the uptake in cortex is given as less than 0.1 % ID/g and the uptake in hippocampus is given as less than 0.1 % ID/g. Also, the Brain uptake result in data set [5] (mouse) is recorded as “low”.
Take `CSCC(NC(=O)NC(CCC(=O)O)C(=O)O)C(=O)O` (stereo not drawn) [MCG]: the “decreasing ^11C-MCG uptake in mouse kidney (FIG. 1)” value in data set [6] (increasing concentration of unlabeled MCG blocker, up to) is listed as “approximately seven fold”. The “reduction in ^11C-MCG uptake” value in data set [6] was “approximately sixfold”.
`O=C(O)CCC(CP(=O)(O)O)C(=O)O` (stereo not drawn) [PMPA, reference compound]: in data set [6], the “reduction in ^11C-MCG uptake” value was “approximately sixfold”. Besides, in data set [3] (baboon renal cortex, pretreatment with 3 mg/kg PMPA), the “reduction in the DV of ^11C-MCG” value worked out at 37%.

The values above are taken from patent publication US7408079B2, “Imaging agents and methods of imaging NAALADase or PSMA” (The Johns Hopkins University, priority 2002, dated 2008).
